# Measurements as given in ChEMBL document CHEMBL5321274, “Second-Generation AUTACs for Targeted Autophagic Degradation” (J Med Chem, 2023).
# Calls of active or inactive are those of the source. The rule behind the calls is not given here.
# Tests used:
# HeLa [1] = test: Induction of autophagy mediated Halotag-fused EGFP (unknown origin) degradation expressed in human HeLa cells assessed as reduction in EGFP-HT substrate level at 0.1 to 10 uM measured after 24 hrs by fluorescence microscopic analysis; type: cell-based; settings: dose 0.1-10 µM
# HeLa [2] = test: Induction of autophagy mediated Halotag-fused EGFP (unknown origin) degradation expressed in human HeLa cells assessed as reduction in EGFP-HT substrate level at 0.01 to 1 uM measured after 24 hrs by fluorescence microscopic analysis; type: cell-based; settings: dose 0.01-1 µM
# HeLa [3] = test: Induction of autophagy mediated Halotag-fused EGFP (unknown origin) degradation expressed in human HeLa cells assessed as reduction in EGFP-HT substrate level at <1 uM measured after 24 hrs by fluorescence microscopic analysis; type: cell-based
# HeLa [4] = test: Cytotoxicity against human HeLa cells expressing Halotag-fused EGFP assessed as reduction in cell survival rate at 0.001 to 100 uM; type: toxicity, cell-based; settings: dose 0.001-100 µM
# MEF [5] = test: Induction of autophagy mediated Halotag-fused EGFP (unknown origin) degradation transiently expressed in Atg5+/+ MEF cells assessed as reduction in EGFP-HT substrate level at 1 uM measured after 24 hrs by fluorescence microscopic analysis; type: cell-based
# HeLa [6] = test: Induction of autophagy mediated Halotag-fused EGFP (unknown origin) degradation expressed in human HeLa cells assessed as reduction in EGFP-HT substrate level at 1 uM incubated for 24 hrs in presence of bafilomycin Al by fluorescence microscopic analysis; type: cell-based
# MEF [7] = test: Induction of autophagy mediated Halotag-fused EGFP (unknown origin) degradation transiently expressed in Atg5-/- MEF cells assessed as reduction in EGFP-HT substrate level at 1 uM measured after 24 hrs by fluorescence microscopic analysis; type: cell-based
# HeLa [8] = test: Induction of autophagy mediated Rosella/Halotag-fused EGFP (unknown origin) degradation expressed in human HeLa cells assessed as lysosomal degradation of EGFP-HT substrate at 1 uM incubated for 24 hrs by fluorescence microscopic analysis; type: cell-based
# HeLa [9] = test: Induction of autophagy mediated Halotag-fused EGFP (unknown origin) degradation expressed in human HeLa cells assessed as reduction in EGFP-HT substrate level at 1 to 10 uM measured after 12 to 24 hrs by fluorescence microscopic analysis; type: cell-based; settings: dose 1-10 µM, time 12-24 hrs
# HeLa [10] = test: Induction of autophagy mediated Halotag-fused EGFP (unknown origin) degradation expressed in human HeLa cells assessed as reduction in EGFP-HT substrate level measured after 24 hrs by fluorescence microscopic analysis; type: cell-based; settings: dose 1-10 µM
# HeLa [11] = test: Induction of EGFP-tagged FKBP12 degradation in human HeLa cells assessed as protein knockdown at 1 uM incubated for 48 hrs by immunoblot analysis; type: cell-based
# MEF [12] = test: Induction of EGFP-tagged FKBP12 degradation in p62-/- MEF cells assessed as reduction in FKBP12 level incubated for 48 hrs by immunoblot analysis; type: cell-based; settings: Mus musculus
# MEF [13] = test: Induction of EGFP-tagged FKBP12 degradation in […] MEF cells assessed as reduction in FKBP12 level incubated for 48 hrs by immunoblot analysis; type: cell-based; settings: Mus musculus
# HeLa [14] = test: Induction of EGFP-tagged FKBP12 degradation in human HeLa cells assessed as reduction in FKBP12 protein level at 0.001 to 10 uM incubated for 48 hrs in presence of bafilomycin Al treated for last 12 hrs by immunoblot analysis; type: cell-based; settings: dose 0.001-10 µM
# HeLa [15] = test: Effect on FKBP12 mRNA transcription level in human HeLa cells at 0.1 to 10 uM incubated for 48 hrs by RT-PCR analysis; type: functional, cell-based; settings: dose 0.1-10 µM
# HeLa [16] = test: Induction of EGFP-tagged FKBP12 degradation in human HeLa cells assessed as reduction in FKBP12 protein level at 1 to 10 uM incubated for 48 hrs in presence of 100 uM 8H-FBnG by immunoblot analysis; type: cell-based; settings: dose 1-10 µM
compound,measurement,setting,value
O=c1[nH]cnc2c1nc(-c1cnn(CCOCCOCCOCCOCCOCCCCCCCl)c1)n2Cc1ccc(F)cc1,Activity,HeLa [1],inactive
"CC(=O)NC(CSc1nc2c(=O)[nH]c(N)nc2n1Cc1cccc(F)c1)C(=O)NCCOCCOCCOCCOCCOCCCCCCCl (single isomer, unassigned)",Activity,HeLa [2],inactive
Nc1nc2c(nc(-c3cn(CCOCCOCCOCCOCCOCCCCCCCl)nn3)n2Cc2ccc(F)cc2)c(=O)[nH]1,Activity,HeLa [2],Active
"CC(=O)NC(CSc1nc2c(=O)[nH]c(N)nc2n1Cc1ccc(C)cc1)C(=O)NCCOCCOCCOCCOCCOCCCCCCCl (single isomer, unassigned)",Activity,HeLa [2],inactive
Nc1nc2c(nc(-c3cnn(CCOCCOCCOCCOCCOCCCCCCCl)c3)n2Cc2ccc(F)cc2)c(=O)[nH]1,Activity,HeLa [3],Active
same,Activity,HeLa [4],Non-Toxic
same,Activity,HeLa [2],Active
same,Activity,MEF [5],Active
same,Activity,HeLa [6],inactive
same,Activity,MEF [7],inactive
same,Activity,HeLa [8],Active
same,Activity,HeLa [9],Active
Fc1ccc(Cn2c(-c3cnn(CCOCCOCCOCCOCCOCCCCCCCl)c3)nc3ccccc32)cc1,Activity,HeLa [1],inactive
"CC(=O)NC(CSc1nc2c(=O)[nH]c(N)nc2n1Cc1ccccc1F)C(=O)NCCOCCOCCOCCOCCOCCCCCCCl (single isomer, unassigned)",Activity,HeLa [2],inactive
Fc1ccc(Cn2ccnc2-c2cnn(CCOCCOCCOCCOCCOCCCCCCCl)c2)cc1,Activity,HeLa [1],inactive
"CC(=O)NC(CSc1nc2c(=O)[nH]c(N)nc2n1Cc1ccc(C#N)cc1)C(=O)NCCOCCOCCOCCOCCOCCCCCCCl (single isomer, unassigned)",Activity,HeLa [2],inactive
"CC(=O)NC(CSc1nc2c(=O)[nH]c(N)nc2n1Cc1ccc(Cl)cc1)C(=O)NCCOCCOCCOCCOCCOCCCCCCCl (single isomer, unassigned)",Activity,HeLa [10],Dose-Dependent Effect
Nc1ncnc2c1nc(-c1cnn(CCOCCOCCOCCOCCOCCCCCCCl)c1)n2Cc1ccc(F)cc1,Activity,HeLa [1],inactive
"CC(=O)NC(CSc1nc2c(=O)[nH]c(N)nc2n1Cc1ccccc1)C(=O)NCCOCCOCCOCCOCCOCCCCCCCl (single isomer, unassigned)",Activity,HeLa [2],inactive
Nc1nc2c(nc(-c3ccc(OCCOCCOCCOCCOCCOCCCCCCCl)cc3)n2Cc2ccc(F)cc2)c(=O)[nH]1,Activity,HeLa [2],Active
"COc1ccc(Cn2c(SCC(NC(C)=O)C(=O)NCCOCCOCCOCCOCCOCCCCCCCl)nc3c(=O)[nH]c(N)nc32)cc1 (single isomer, unassigned)",Activity,HeLa [2],inactive
"CC(=O)NC(CSc1nc2c(=O)[nH]c(N)nc2n1Cc1ccc(S(C)(=O)=O)cc1)C(=O)NCCOCCOCCOCCOCCOCCCCCCCl (single isomer, unassigned)",Activity,HeLa [2],inactive
CCC(C)(C)C(=O)C(=O)N1CCCC[C@H]1C(=O)O[C@H](CCc1ccc(OC)c(OC)c1)c1cccc(NC(=O)CCC(=O)NCCCOCCOCCOCCCn2cc(-c3nc4c(=O)[nH]c(N)nc4n3Cc3ccc(F)cc3)cn2)c1,Activity,HeLa [11],Active
same,Activity,MEF [12],inactive
same,Activity,MEF [13],inactive
same,Activity,HeLa [14],inactive
same,Activity,HeLa [15],inactive
same,Activity,HeLa [16],inactive
Cn1c(=O)c2nc(-c3cnn(CCOCCOCCOCCOCCOCCCCCCCl)c3)n(Cc3ccc(F)cc3)c2n(C)c1=O,Activity,HeLa [1],inactive
Nc1nc2c(nc(-c3cccc(OCCOCCOCCOCCOCCOCCCCCCCl)c3)n2Cc2ccc(F)cc2)c(=O)[nH]1,Activity,HeLa [2],Active
